Key:
human platelet PDE-V = molecular target: T1, human platelet PDE-V (Homo sapiens, UniProt O76074); test: cGMP-Phosphodiesterase (PDE) assay; enzymatic inhibitory test against human platelet PDE-V; format: biochemical; conditions: 0.1 μM [3H]-cGMP substrate, 30° C., 10 minutes
T1 construct: Human platelet cGMP-PDE was separated from other isozymes in human platelets; from tissue; host or cells: human platelets
Protocol: [II] Test Method: cGMP-Phosphodiesterase (PDE) Assay
Human platelet cGMP-PDE was separated from other isozymes in human platelets by a modification of the method of Thompson et. al. (see Cyclic Nucleotide Phosphodiesterase (PDE), in Methods of Enzymatic analysis, Vol 4, p127-234, 1984). Specific inhibitory activity of PDE-V was measured by following procedure. In enzyme inhibition assays, the test compounds were dissolved in DMSO and then diluted with assay buffer (50 mM Tris-HCl, 0.077 mg/ml dithiothreitol and 10 mg/ml snake venom, 1 mM EGTA, pH 8.0), at final concentrations ranging from 10^−10 to 10^−6 M. Assays were performed at 0.1 μM substrate ([^3H]-cGMP) concentration, at 30° C. for 10 minutes using enzyme dilutions which gave 10-20% hydrolysis of substrate. Each assay was initiated by addition of substrate and terminated by addition of anion exchange resin (Dowex® 1-X8, […]) followed by centrifugation for 10 minutes (3000 rpm, at 4° C.). Radioactivity of supernatant ([^3H]-GMP) was assayed by liquid scintillation counting.

## COc1ccc(Cn2c(=O)n([C@H](C)CO)c3ncc(C(F)(F)F)cc32)cc1Cl [Example 4(2), 1-(3-Chloro-4-methoxybenzyl)-3-((R)-2-hydroxy-1-methylethyl)-6-trifluoromethyl-2,3-dihydro-1H-imidazo[4,5-b]pyridin-2-one]
Human platelet PDE-V
  IC50: < 10 nM
other
  melting point: 154.5 to 155 °C

## COc1ccc(Cn2c(=O)n([C@H]3CC[C@H](O)CC3)c3ccc(C#N)cc32)cc1C#N [Example 2(81), 5-Cyano-3-(3-cyano-4-methoxybenzyl)-1-(trans-4-hydroxycyclohexyl)-2,3-dihydro-1H-benzimidazol-2-one]
Human platelet PDE-V
  IC50: < 10 nM
other
  melting point: 191 to 193 °C

## COc1ccc(Cn2c(=O)n(-c3ccc4[nH]cnc4c3)c3ccc(C(F)(F)F)cc32)cc1Cl [Example 2(21), 1-(1H-Benzimidazol-5-yl)-3-(3-chloro-4-methoxybenzyl)-5-trifluoromethyl-2,3-dihydro-1H-benzimidazol-2-one]
Human platelet PDE-V
  IC50: < 10 nM
other
  melting point: 158 to 160 °C

— patent publication US6582351B1, “Imidazopyridinone derivatives and their use as phosphodiesterase inhibitors” (Fujisawa Pharmaceutical Co., Ltd., priority 1999, dated 2003)
